According to patent publication US9205064B2, “Methods for the diagnosis of oncological disorders using epimetabolic shifters, multidimensional intracellular molecules, or environmental influencers” (Berg LLC, priority 2009, dated 2015):

Key:
SkBr-3 Cells = test: Real-time PCR Apoptosis Array; type: cell-based, human; design: key: fold change in mRNA level; negative = down-regulation; conditions: 50 um Q10, 24 hours
Procedure: RNA was quantified by measuring Optical Density at 260 nm.
Changes in mRNA levels were evaluated using real-time PCR quantification to assess mRNA levels in pre-selected subsets containing […] pathway specific targets.
For the interpretation of mRNA results, the genes that were altered in their mRNA transcription by a two-fold level were identified and evaluated. The level of gene transcription to produce mRNA only provides a rough estimate of potential changes in the level of the expressed protein. The skilled artisan will appreciate that each mRNA may have different rates at which it is degraded or its translation inefficiently, thus resulting in differing amounts of protein.
The assay method of RT-PCR was utilized to provide a measure of mRNA level changes to a total of 84 apoptotic pathway related proteins.

[1] = system: Isocitrate Dehydrogenase-1 (IDH-1); test: Western blot of IDH1 levels in normal and cancer cells; type: cell-based, human; conditions: PACA2, 5g48-100
Procedure: The whole cell pellets were resuspended one at a time in 1 mL of C7 buffer and transferred to labeled 15 mL tubes. The samples were then sonicated in the cold room on ice using 6 sonic pulses with the setting at #14. The samples were spun for a short time to 2500 g after sonication and the samples transferred to 2 ml tubes. The pH was verified of each sample (pH should be 9.0) using the foam remaining in the […] sample tubes.
Alkylation and reduction of samples was performed for each sample by adding 10 ul of 1M acrylamide, 25 ul of tributylphoshene and incubation for 90 mins with intermittent mixing. After incubation, 10 ul of 1M DTT was added and the tubes were spun at 20,000 g at 20 deg C. for 10 minutes and transferred the supernatant to labeled Amicon Ultra centrifugal filter units with a 10 k cut off (Millipore catalog #UFC 801024). The samples were spun for 15 minutes at 2500 g in 2 intervals. The conductivity was measured for Chaps alone as well as the samples using a conductivity meter. If the conductivity of samples is high, then 1 ml of chaps was added for buffer exchange and spun again at 2500 g until the volume was down to 250 ul. […]
The samples were processed as per standard protocols as described above and the amount of protein in each of the samples was determined by Bradford assay. […]

Compound: COC1=C(OC)C(=O)C(C/C=C(\C)CC/C=C(\C)CC/C=C(\C)CC/C=C(\C)CC/C=C(\C)CC/C=C(\C)CC/C=C(\C)CC/C=C(\C)CC/C=C(\C)CCC=C(C)C)=C(C)C1=O [Q10, Coenzyme Q10]
- APAF1 mRNA Up-Down Regulation (SkBr-3 Cells): 2.6244
- BAX mRNA Up-Down Regulation (SkBr-3 Cells): 3.896
- BCL2L1 mRNA Up-Down Regulation (SkBr-3 Cells): 13.1957
- BCL2L11 mRNA Up-Down Regulation (SkBr-3 Cells): 4.6012
- BCL2 mRNA Up-Down Regulation (SkBr-3 Cells): 5.4717
- BIRC6 mRNA Up-Down Regulation (SkBr-3 Cells): 4.7966
- BNIP2 mRNA Up-Down Regulation (SkBr-3 Cells): 6.3291
- BRAF mRNA Up-Down Regulation (SkBr-3 Cells): 4.3832
- HPRT1 mRNA Up-Down Regulation (SkBr-3 Cells): −160.6748
- XIAP mRNA Up-Down Regulation (SkBr-3 Cells): 4.3832
- IDH1 Normalized Intensity (HASMC vs. PACA2) [1]: 860
